We go through 81 compounds from PubChem BioAssay AID743394 (Broad Institute, 2014).

Each structure is given as a SMILES string. The source made the active and inactive calls.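 How the source made its calls: active means 40% activation versus positive control reached by fitted dose-response curve at or below highest valid tested dose; inconclusive means poor fit quality, or flat fit with activation between 30% and 70%; inactive means the rest.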

The first experiment in a line: inactive X chromosome reactivation in XiGFP fibroblasts, dose response, imaging, 68-5-11 mouse fibroblasts, GFP, cherry-pick (AID 743394).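 Further: sensitizer 5-aza-dC present in the wells at 0.5 mM final.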 The following applies: 68-5-11 mouse fibroblast XiGFP reporter, % GFP-positive imaging, 3 d; at 19.5 µM (top of the series).
Regarding `COCCCn1c(N)c(C(=O)Nc2ccccc2)c2nc3ccccc3nc21`, the activation was -0.127% (inactive).
As to `C=CCn1c(O)c(C(C)=NCc2ccc3c(c2)OCO3)c(=O)[nH]c1=O`, the activation is 0.026% (inactive).
In the case of `Cc1ccc2[nH]c(=S)n(-c3cccnc3)c(=O)c2c1`, the activation is -0.035% (inactive).

The same experiment, now with this note: 68-5-11 mouse fibroblast XiGFP reporter, % GFP-positive imaging, 3 d; at 19.5 µM (top of the series); cells co-treated with 5-aza-dC sensitizer; scaled: neutral wells 0, ellipticine wells 100.
As for `Cc1c(Nc2cc(Cl)c3nonc3c2[N+](=O)[O-])c(=O)n(-c2ccccc2)n1C`, the activation is -0.121% (inactive).
The same measure, in the same setting: in the case of `CCOC(=O)[C@]12CCC=C1N(Cc1ccccc1)C(=O)[C@H](CC(=O)N1CCSCC1)C2` it was -0.008% (inactive); in that of `Nc1nc(Nc2ccc(Cl)cc2)c(NC=O)c(=O)[nH]1`, -0.075% (inactive).
Still for that read-out and setting: in the case of `CC(C)Oc1ccc(/C(O)=C2/C(=O)C(=O)N(CCN(C)C)C2c2cccs2)cc1` (stereo unspecified) it was 0.063% (inactive); in that of `COc1ccc(-c2ccc(C(=O)NCc3cccs3)c3occc23)c(C)c1`, -0.032% (inactive); in that of `Cc1cc(NC(=O)c2ccccc2)n(-c2nc3ccccc3[nH]2)n1`, -0.016% (inactive).
Take `Cc1nn2c(NCCCN(C)C)c3c(nc2c1-c1ccccc1)CCCC3`: the activation was 0.079% (inactive).
Still for that read-out and setting: in the case of `O=C(/C=C/Sc1ccc(C(F)(F)F)cn1)c1ccccc1` it was 0.096% (inactive).
For `Cn1cc(C(=O)N/N=C/C(Br)=C/c2ccccc2)ccc1=O`, the activation is -0.07% (inactive).
Same read-out and setting: in the case of `CCCOc1ccc(C(=O)Nc2ccc(CN3CCOCC3)cc2)cc1` it was -0.053% (inactive); in that of `c1ccc(CCNc2nc(-c3ccccn3)nc3ccccc23)cc1`, -0.035% (inactive).
Regarding `COC(=O)c1c(NC(=O)c2ccccc2)sc2c1CC(C)(C)NC2(C)C`, the activation was 0.021% (inactive).
On the same count and under the same terms, in the case of `COc1ccc(/C=C2\CCc3ccccc3C2=O)cc1CN1CCOCC1` it was 0.231% (inactive).
Still for that read-out and setting: in the case of `Cc1ccc(S(=O)(=O)NN2C(=O)/C(=C/c3ccccn3)SC2=S)cc1` it was 0.025% (inactive); in that of `CCN(CC)c1ccc(N=Cc2ccc([N+](=O)[O-])o2)cc1`, 0.626% (inactive); in that of `C/C(=N\NC(=O)c1ccccc1Cl)c1ccccn1`, 3.5% (inactive).
Same read-out and setting: in the case of `CCCOc1ccc(Oc2nc(-c3ccncc3)nc3ccccc23)cc1` it was 0.003% (inactive).
Regarding `COc1ccc2c3c([nH]c2c1)[C@H](CO)N(C(=O)c1cccnc1)CC31CCN(Cc2ccccc2)CC1`, the activation was 0.094% (inactive).
Regarding `CC(C)(C)N(Cc1ccccc1)C(=O)COC(=O)c1ccc(N2CCCC2=O)cc1`, the activation is 0.165% (inactive).
Still for that read-out and setting: in the case of `Cc1ccc(OCCN2CCN(CC(O)Cn3c4ccccc4c4ccccc43)CC2)cc1` (stereo unspecified) it was 5.68% (inactive); in that of `S=C(SSC(=S)N1CCOCC1)N1CCOCC1`, -0.127% (inactive); in that of `CC(=O)C1=NN(c2ccc(Cl)cc2)C(c2ccc3c(c2)OCO3)N(C(C)=O)N1C` (stereo unspecified), -0.032% (inactive).
Turning to `Cc1cc(NC(=O)c2c(-c3c(Cl)cccc3Cl)noc2C)n(C)n1`, the activation was -0.127% (inactive).
Same read-out and setting: in the case of `Nc1c(C(=O)O)cnn1-c1ccc([N+](=O)[O-])cc1` it was 0.022% (inactive); in that of `O=c1c2cc(-c3ccccc3)sc2nc2n1N=C(c1ccccc1)CS2`, 1.54% (inactive).
Still for that read-out and setting: in the case of `C=CCN(CC(O)c1cccc([N+](=O)[O-])c1)C(C)CCc1ccccc1` (stereo unspecified) it was -0.039% (inactive).
The same measure, in the same setting: in the case of `O=C1N[C@H](Cc2ccccc2)COCc2cn(nn2)CC[C@@H]1Cc1ccccc1` it was 0.033% (inactive).
For the compound `CC1Oc2ccccc2C=C1/C=N\NC(=O)c1cccnc1` (stereo unspecified), the activation is 0.047% (inactive).
As for `O=C(N/N=C/c1ccc2cccnc2c1)c1nc2ccccc2c(=O)[nH]1`, the activation was 0.014% (inactive).
The same measure, in the same setting: in the case of `Cc1ccccc1-c1ccc(C2[C@@H]3CN(Cc4cocn4)C[C@H]2N3)cc1` (stereo partly specified) it was -0.031% (inactive); in that of `O=C(NNC(=O)c1cc2ccccc2o1)c1ccc(Cl)cc1`, 0.006% (inactive).
Regarding `CC(=O)Nc1sc(C)c(C)c1C(=O)OCC(=O)Nc1cc(S(C)(=O)=O)ccc1Cl`, the activation is 0.641% (inactive).
The same measure, in the same setting: in the case of `CSc1ccc(CNCC2CCCO2)cc1` (stereo unspecified) it was 0.842% (inactive); in that of `CC(=O)c1ccc2c(c1)OCCOCCOCCOCCOCCO2`, -0.021% (inactive).
Turning to `CC(=O)c1c(COC(=O)c2ccccc2Cl)nc2ccccc2[n+]1[O-]`, the activation is 0.188% (inactive).
Still for that read-out and setting: in the case of `COc1ccc(N(CC(=O)Nc2nccs2)S(=O)(=O)c2c(C)[nH]c(=O)[nH]c2=O)cc1` it was 0.033% (inactive); in that of `CC(OCCN(C)C)C(=O)C12CC3CC(CC(C3)C1)C2` (stereo unspecified), 0.008% (inactive); in that of `CCOc1cccc(/C=N/NC(=S)Nc2cc(S(=O)(=O)N3CCOCC3)ccc2N2CCOCC2)c1O`, 6.09% (inactive).
Turning to `CN(Cc1nc(CCc2ccccc2)no1)Cc1cccs1`, the activation is -0.037% (inactive).
Still for that read-out and setting: in the case of `Cc1cc(-c2nc(C)c(-c3nnc(SCC(=O)Nc4ccc(Cl)cc4)n3C)s2)no1` it was 0.023% (inactive); in that of `Cc1ccc(S(=O)(=O)Nc2ccc3c(c2)C(=O)N([C@@H](C)CO)C[C@@H](C)[C@@H](CN(C)Cc2ccc(C(=O)Nc4ccccc4N)cc2)O3)cc1`, 1.51% (inactive).
Regarding `COc1cc(/C=C2\SC(=S)N(N3CCOCC3)C2=O)cc(OC)c1OC`, the activation is 0.067% (inactive).
On the same count and under the same terms, in the case of `Nc1ccc(-c2nc3ccccc3[nH]2)cc1` it was -0.039% (inactive); in that of `COc1ccc(CN(C)Cc2nc(Cc3ccccc3Cl)no2)cc1OC`, -0.032% (inactive).
On the same count and under the same terms, in the case of `COc1cc(NC(C)CCc2ccccc2)cc(OC)c1OC` (stereo unspecified) it was -0.035% (inactive); in that of `Cc1cccc(NCc2ccc(O)c3ncccc23)c1C`, 0.288% (inactive).
Turning to `CCN1CCc2c(sc(NC(=O)c3ccc4ccccc4c3)c2C(N)=O)C1`, the activation was -0.008% (inactive).
On the same count and under the same terms, in the case of `CC=Cc1ccc2n(c1=O)C[C@@H]1[C@@H](CO)[C@H](C(=O)NCCCN(C)C)[C@H]2N1C(=O)c1ccccc1F` (mixture of isomers) it was -0.01% (inactive); in that of `COc1ccc(C(=O)Nc2c(F)c(F)c(F)c(F)c2F)cc1OC`, -0.047% (inactive).
Same read-out and setting: in the case of `Cc1cccn2c(=O)c3cc(C(=O)NCc4ccc(F)cc4)c(=N)n(CCCN4CCOCC4)c3nc12` it was 0.061% (inactive); in that of `Cc1ccc(C(=O)NCc2ccccn2)cc1NC1=NC2CS(=O)(=O)CC2S1` (stereo unspecified), 0.151% (inactive); in that of `Cc1ccnc(NS(=O)(=O)c2ccc3c(c2)CCO3)c1`, 0.025% (inactive).
Same read-out and setting: in the case of `CCCCCC[n+]1ccccc1/C=C/c1ccc(N(C)C)cc1` it was 6.32% (inactive).
Regarding `COCCN(C(=O)c1ccc2c(c1)C(=O)N(c1ccccc1Cl)C2=O)c1c(N)n(CC(C)C)c(=O)[nH]c1=O`, the activation was 0.738% (inactive).
Regarding `Oc1cc2c(c(Cl)c1O)CCNCC2c1ccccc1` (stereo unspecified), the activation was -0.008% (inactive).
On the same count and under the same terms, in the case of `COC(=O)c1ccc(NC(=O)c2nc(S(=O)(=O)Cc3cccc(C)c3)ncc2Cl)cc1` it was -0.008% (inactive); in that of `Nc1ccccc1C#CC(=O)c1ccccc1`, -0.07% (inactive).
Same read-out and setting: in the case of `CNc1ccc([N+](=O)[O-])cc1C(=O)O` it was 0.697% (inactive); in that of `CC(C)c1ccc(N2C(=O)/C(=C/N(C)C)SC2=S)cc1`, 0.088% (inactive).
Turning to `O=C(NCc1ccccc1)c1ccccc1Br`, the activation was 0.035% (inactive).
On the same count and under the same terms, in the case of `Cc1ccc(Cn2ccsc2=NC(=O)CCl)cc1` it was -0.035% (inactive); in that of `C=Cc1cnc([N+](=O)[O-])n1C`, -0.018% (inactive); in that of `CCSc1nnc(NC(=O)c2cc(OC)c(OC)c(OC)c2)s1`, 0.316% (inactive).
Turning to `CCOc1ccc(CCN2C(=S)N([C@@H](Cc3ccccc3)CN3CCC[C@@H]3CN3C(=S)NC[C@@H]3CC(C)C)C[C@@H]2Cc2ccccc2)cc1`, the activation is 0.011% (inactive).
As for `CCOc1ccc(NC(=S)NC(C)c2cccs2)cc1` (stereo unspecified), the activation was 0.358% (inactive).
Turning to `Brc1cccc(CNCC2CCCO2)c1` (stereo unspecified), the activation was 0.116% (inactive).
Regarding `CCc1ccc(NS(=O)(=O)c2cccc3nonc23)cc1`, the activation is -0.121% (inactive).
On the same count and under the same terms, in the case of `Cc1n[nH]c(=S)n(/N=C/c2cccc([N+](=O)[O-])c2)c1=O` it was -0.091% (inactive).
`COC(=O)c1cc(C(=O)N2CCN(c3ccccc3OC)CC2)cc([N+](=O)[O-])c1`: the activation is 0.681% (inactive).
Still for that read-out and setting: in the case of `CCc1ccc(CCC(=O)Nc2ncc(Cc3ccccc3Cl)s2)o1` it was 0.223% (inactive).
On to `Cc1ccc(/C=C/C(=O)N2CCN(S(=O)(=O)/C=C/c3ccccc3)CC2)o1`, for which the activation was 0.382% (inactive).
Still for that read-out and setting: in the case of `C[C@@H]1CCCCO[C@H](CN(C)C(=O)Nc2ccc(C(F)(F)F)cc2)[C@H](C)CN([C@H](C)CO)C(=O)c2cc(NC(=O)CCC(F)(F)F)ccc2O1` it was 0.24% (inactive).
Same read-out and setting: in the case of `CN(C)C(=O)CN1CCN(Cc2nc(CC3CC3)no2)CC1` it was -0.032% (inactive); in that of `Cc1ccccc1NC(=O)c1cn2c(nc3ccccc32)c(C#N)c1C`, 3.72% (inactive).
On the same count and under the same terms, in the case of `CCOC(=O)C1=C(C)NC(=S)NC1/C=C/c1ccccc1` (stereo unspecified) it was -0.024% (inactive).
For the compound `CCOC(=O)Nc1ccc2nc(-c3cscn3)[nH]c2c1`, the activation is 0.097% (inactive).
Same read-out and setting: in the case of `COc1ccc(-c2noc(-c3cccs3)n2)cc1OC` it was 0.151% (inactive).

Still in this experiment, the particulars now being: 68-5-11 mouse fibroblast XiGFP reporter, % GFP-positive imaging, 3 d; at 21 µM (top of the series); cells co-treated with 5-aza-dC sensitizer; scaled: neutral wells 0, ellipticine wells 100.
As to `COc1ccc(S(=O)(=O)N(C)C[C@@H]2OCc3cn(nn3)CCCC(=O)N([C@@H](C)CO)C[C@@H]2C)cc1`, the activation is 0.05% (inactive).
